Measured values taken from ChEMBL document CHEMBL5506046, “Discovery of LLC355 as an Autophagy-Tethering Compound for the Degradation of Discoidin Domain Receptor 1” (J Med Chem, 2024).
Active and inactive are the calls of the source. The rule behind the calls is not given here.

Key:
[1] = biological target: T1, LC3/Epithelial discoidin domain-containing receptor 1 (Homo sapiens, UniProt Q08345+Q9BXW4+Q9GZQ8+Q9H492); assay: Autophagosome tethering activity at DDR1 in human NCI-H23 cells assessed as protein degradation at 0.3 uM measured after 24 hrs by immunoblotting analysis relative to control; format: cell-based
[2] = biological target: T1, LC3/Epithelial discoidin domain-containing receptor 1; assay: Autophagosome tethering activity at DDR1 in human NCI-H23 cells assessed as induction of protein degradation incubated for 12 hrs by immunoblotting analysis; format: cell-based
[3] = biological target: LC3/Discoidin domain-containing receptor 2 (Homo sapiens) (UniProt Q16832+Q9BXW4+Q9GZQ8+Q9H492); assay: Autophagosome tethering activity at DDR2 in human NCI-H23 cells assessed as induction of protein degradation at 100 to 1000 nM incubated for 24 hrs by immunoblotting analysis; format: cell-based; conditions: dose 100-1000 nM
[4] = biological target: T1, LC3/Epithelial discoidin domain-containing receptor 1; assay: Autophagosome tethering activity at DDR1 in human NCI-H23 cells assessed as induction of protein degradation at 1 uM by immunoblotting analysis; format: cell-based; conditions: time 1-24 hrs, TDE = time-dependent effect
[5] = biological target: T1, LC3/Epithelial discoidin domain-containing receptor 1; assay: Autophagosome tethering activity at DDR1 in human PANC-1 cells assessed as induction of protein degradation at 100 to 1000 nM measured after 24 hrs by immunoblotting analysis; format: cell-based; conditions: dose 100-1000 nM
[6] = biological target: T1, LC3/Epithelial discoidin domain-containing receptor 1; assay: Autophagosome tethering activity at DDR1 in human MIA PaCa-2 cells assessed as induction of protein degradation at 100 to 1000 nM measured after 24 hrs by immunoblotting analysis; format: cell-based; conditions: dose 100-1000 nM
[7] = tested on: NCI-H23; assay: Effect on DDR1 mRNA level in human NCI-H23 cells at 0.3 to 1 uM incubated for 24 hrs by qRT-PCR analysis; format: functional, cell-based; conditions: dose 0.3-1 µM
[8] = Half life in Sprague-Dawley rat at 2 mg/kg, iv measured up to 24 hrs by LC-MS/MS analysis; format: ADME, organism-based; conditions: in vivo
[9] = Tmax in Sprague-Dawley rat at 2 mg/kg, iv measured up to 24 hrs by LC-MS/MS analysis; format: ADME, organism-based; conditions: in vivo
[10] = Cmax in Sprague-Dawley rat at 2 mg/kg, iv measured up to 24 hrs by LC-MS/MS analysis; format: ADME, organism-based; conditions: in vivo
[11] = AUC(0 to t) in Sprague-Dawley rat at 2 mg/kg, iv measured up to 24 hrs by LC-MS/MS analysis; format: ADME, organism-based; conditions: in vivo
[12] = Clearance in Sprague-Dawley rat at 2 mg/kg, iv measured up to 24 hrs by LC-MS/MS analysis; format: ADME, organism-based; conditions: in vivo
[13] = Half life in Sprague-Dawley rat at 10 mg/kg, po measured up to 24 hrs by LC-MS/MS analysis; format: ADME, organism-based; conditions: in vivo
[14] = Tmax in Sprague-Dawley rat at 10 mg/kg, po measured up to 24 hrs by LC-MS/MS analysis; format: ADME, organism-based; conditions: in vivo
[15] = Cmax in Sprague-Dawley rat at 10 mg/kg, po measured up to 24 hrs by LC-MS/MS analysis; format: ADME, organism-based; conditions: in vivo
[16] = AUC(0 to t) in Sprague-Dawley rat at 10 mg/kg, po measured up to 24 hrs by LC-MS/MS analysis; format: ADME, organism-based; conditions: in vivo
[17] = Oral bioavailability in Sprague-Dawley rat at 10 mg/kg measured up to 24 hrs by LC-MS/MS analysis; format: ADME, organism-based; conditions: in vivo
[18] = biological target: T1, LC3/Epithelial discoidin domain-containing receptor 1; assay: Autophagosome tethering activity at DDR1 in human NCI-H23 cells assessed as induction of protein degradation at 1 uM measured for 1 to 24 hrs in presence of cycloheximide by immunoblotting analysis; format: cell-based; conditions: time 1-24 hrs
[19] = biological target: T1, LC3/Epithelial discoidin domain-containing receptor 1; assay: Autophagosome tethering activity at DDR1 in human NCI-H23 cells assessed as induction of protein degradation at 1 uM pretreated for 24 hrs followed by medium replacement with compound-free medium measured for 12 hrs by Western blot analysis; format: cell-based
[20] = biological target: T1, LC3/Epithelial discoidin domain-containing receptor 1; assay: Autophagosome tethering activity at DDR1 in human NCI-H23 cells assessed as induction of protein degradation at 1 uM measured for >48 hrs by Western blot analysis; format: cell-based
[21] = biological target: T1, LC3/Epithelial discoidin domain-containing receptor 1; assay: Autophagosome tethering activity at DDR1 in bafilomycin A1-treated human NCI-H23 cells assessed as induction of protein degradation at 1 uM incubated for 12 hrs by Western blot analysis; format: cell-based
[22] = biological target: T1, LC3/Epithelial discoidin domain-containing receptor 1; assay: Autophagosome tethering activity at DDR1 in chloroquine-treated human NCI-H23 cells assessed as induction of protein degradation at 1 uM incubated for 12 hrs by Western blot analysis; format: cell-based
[23] = biological target: T1, LC3/Epithelial discoidin domain-containing receptor 1; assay: Autophagosome tethering activity at DDR1 in rapamycin-treated human NCI-H23 cells assessed as induction of protein degradation at 0.3 uM incubated for 12 hrs by Western blot analysis; format: cell-based
[24] = biological target: T1, LC3/Epithelial discoidin domain-containing receptor 1; assay: Autophagosome tethering activity at DDR1 in human NCI-H23 cells assessed as induction of protein degradation at 10 uM incubated for 6 hrs by Western blot analysis; format: cell-based
[25] = biological target: T1, LC3/Epithelial discoidin domain-containing receptor 1; assay: Autophagosome tethering activity at DDR1 in human NCI-H23 cells assessed as induction of protein degradation at 10 uM incubated for 6 hrs by TMT-based global proteomic profiling analysis; format: cell-based
[26] = tested on: NCI-H23; assay: Downregulation of CDCA7 expression in human NCI-H23 cells at 10 uM incubated for 6 hrs by Western blot analysis; format: functional, cell-based
[27] = tested on: NCI-H23; assay: Downregulation of LIPA expression in human NCI-H23 cells at 10 uM incubated for 6 hrs by Western blot analysis; format: functional, cell-based
[28] = tested on: NCI-H23; assay: Downregulation of PPIC expression in human NCI-H23 cells at 10 uM incubated for 6 hrs by Western blot analysis; format: functional, cell-based
[29] = tested on: NCI-H23; assay: Downregulation of REEP3 expression in human NCI-H23 cells at 10 uM incubated for 6 hrs by Western blot analysis; format: functional, cell-based
[30] = tested on: NCI-H23; assay: Downregulation of RBM3 expression in human NCI-H23 cells at 10 uM incubated for 6 hrs by Western blot analysis; format: functional, cell-based
[31] = tested on: NCI-H23; assay: Downregulation of BNIP3 expression in human NCI-H23 cells at 10 uM incubated for 6 hrs by Western blot analysis; format: functional, cell-based
[32] = tested on: NCI-H23; assay: Downregulation of GOLM1 expression in human NCI-H23 cells at 10 uM incubated for 6 hrs by Western blot analysis; format: functional, cell-based
[33] = tested on: NCI-H23; assay: Downregulation of CDK4 expression in human NCI-H23 cells at 10 uM incubated for 6 hrs by Western blot analysis; format: functional, cell-based
[34] = tested on: NCI-H23; assay: Downregulation of EXO1 expression in human NCI-H23 cells at 10 uM incubated for 6 hrs by Western blot analysis; format: functional, cell-based
[35] = tested on: NCI-H23; assay: Inhibition of cell migration in human NCI-H23 cells at 0.3 uM incubated for 24 hrs by transwell assay; format: functional, cell-based
[36] = tested on: NCI-H23; assay: Inhibition of cell invasion in human NCI-H23 cells at 0.3 uM incubated for 24 hrs by transwell assay; format: functional, cell-based
[37] = tested on: NCI-H23; assay: Induction of apoptosis in human NCI-H23 cells assessed as increase in cleaved PARP level at 0.3 uM incubated for 24 hrs by Western blot analysis; format: functional, cell-based
[38] = tested on: NCI-H23; assay: Induction of apoptosis in human NCI-H23 cells assessed as increase in cleaved PARP level at 1 uM incubated for 24 hrs by Western blot analysis; format: functional, cell-based
[39] = tested on: NCI-H23; assay: Inhibition of tumorigenicity in human NCI-H23 cells at 0.1 to 1 uM incubated for 10 days by colony formation assay; format: functional, cell-based; conditions: dose 0.1-1 µM, time 10.0 day
[40] = Toxicity in Sprague-Dawley rat at 10 mg/kg, po or 2 mg/kg, iv measured up to 24 hrs by LC-MS/MS analysis; format: organism-based; conditions: in vivo
[41] = Toxicity in Sprague-Dawley rat assessed as drug tolerance at 10 mg/kg, po or 2 mg/kg, iv measured up to 24 hrs by LC-MS/MS analysis; format: organism-based; conditions: in vivo
[42] = tested on: NCI-H23; assay: Inhibition of cell migration in human NCI-H23 cells at 1 uM incubated for 24 hrs by transwell assay; format: functional, cell-based
[43] = tested on: NCI-H23; assay: Inhibition of cell invasion in human NCI-H23 cells at 1 uM incubated for 24 hrs by transwell assay; format: functional, cell-based
[44] = tested on: NCI-H23; assay: Inhibition of tumorigenicity in human NCI-H23 cells at 1 uM incubated for 10 days by colony formation assay; format: functional, cell-based; conditions: time 10.0 day

With CCc1ccc(C(=O)Nc2cc(CN3CCN(CCOCC(=O)NCCCN(C(=O)c4ccc(C)cc4)[C@@H](c4nc5cc(Cl)ccc5c(=O)n4Cc4ccccc4)C(C)C)CC3)cc(C(F)(F)F)c2)cc1C#Cc1cnc2ccnn2c1 the Activity [1] was 40%, the DC50 [2] was 151 nM and the Activity ([2]; dose 1-10000 nM) was “Dose-Dependent Effect”. The Activity [3] was “inactive”, the Activity [4] was “Tde” and the Activity [5] was “Active”. The Activity [6] was “Active”, the Activity [7] was “inactive” and the half-life [8] was 3.18 h. The Tmax [9] was 4.8 min, the Cmax [10] was 27000 ng/mL and the AUC(0-t) at 24 h [11] was 30100 ng·h/mL. For the same compound, the clearance [12] was 1.11 mL/min/kg, the half-life [13] was 3.99 h and the Tmax [14] was 3.33 h. It also gave a Cmax [15] of 226 ng/mL, an AUC(0-t) at 24 h [16] of 1150 ng·h/mL and a bioavailability [17] of 0.77%. The Activity [18] was “inactive”, the Activity [19] was “Active” and the Activity [20] was “Active”. For the same compound, the Activity [21] was “inactive”, the Activity [22] was “inactive” and the Activity [23] was “Active”. The Activity [24] was “Active”, the Activity [25] was “Active” and the Activity [26] was “Active”. The Activity [27] was “Active”, the Activity [28] was “Active” and the Activity [29] was “Active”. For the same compound, the Activity [30] was “Active”, the Activity [31] was “Active” and the Activity [32] was “Active”. For the same compound, the Activity [33] was “Active”, the Activity [34] was “Active” and the inhibition [35] was “Active”. For the same compound, the inhibition [36] was “Active”, the Activity [37] was “inactive” and the Activity [38] was “Active”. For the same compound, the inhibition [39] was “Active”, the Activity [40] was “Non-Toxic” and the Activity [41] was “Non-Toxic”.
With CCc1ccc(C(=O)Nc2cc(CN3CCN(C(=O)COCCNC(=O)COc4c(Br)cc(/C=C5\C(=O)Nc6ccc(I)cc65)cc4Br)CC3)cc(C(F)(F)F)c2)cc1C#Cc1cnc2ccnn2c1 the Activity [1] was 0%.
With CCc1ccc(C(=O)Nc2cc(CN3CCN(C(=O)CCCCCNC(=O)COc4c(Br)cc(/C=C5\C(=O)Nc6ccc(I)cc65)cc4Br)CC3)cc(C(F)(F)F)c2)cc1C#Cc1cnc2ccnn2c1 the Activity [1] was 12%.
With CCc1ccc(C(=O)Nc2cc(CN3CCN(C(=O)CCCNC(=O)COc4c(Br)cc(/C=C5\C(=O)Nc6ccc(I)cc65)cc4Br)CC3)cc(C(F)(F)F)c2)cc1C#Cc1cnc2ccnn2c1 the Activity [1] was 17%.
For CC#Cc1cc(C(=O)Nc2cc(CN3CCN(CCOCC(=O)NCCCN(C(=O)c4ccc(C)cc4)[C@@H](c4nc5cc(Cl)ccc5c(=O)n4Cc4ccccc4)C(C)C)CC3)cc(C(F)(F)F)c2)ccc1CC, the inhibition [42] was “inactive”, the inhibition [43] was “inactive” and the inhibition [44] was “inactive”.
In the case of CCc1ccc(C(=O)Nc2cc(CN3CCN(C)CC3)cc(C(F)(F)F)c2)cc1C#Cc1cnc2ccnn2c1, the inhibition [42] is reported as “inactive”, the inhibition [43] is reported as “inactive” and the inhibition [44] is reported as “inactive”.
For CCc1ccc(C(=O)Nc2cc(CN3CCN(C(=O)CNC(=O)COc4c(Br)cc(/C=C5\C(=O)Nc6ccc(I)cc65)cc4Br)CC3)cc(C(F)(F)F)c2)cc1C#Cc1cnc2ccnn2c1, the Activity [1] was 16%.
CCc1ccc(C(=O)Nc2cc(CN3CCN(C(=O)COCCOCCNC(=O)COc4c(Br)cc(/C=C5\C(=O)Nc6ccc(I)cc65)cc4Br)CC3)cc(C(F)(F)F)c2)cc1C#Cc1cnc2ccnn2c1 showed an Activity [1] of 9%.
In the case of CCc1ccc(C(=O)Nc2cc(CN3CCN(CCOCCOCC(=O)NCCCN(C(=O)c4ccc(C)cc4)[C@@H](c4nc5cc(Cl)ccc5c(=O)n4Cc4ccccc4)C(C)C)CC3)cc(C(F)(F)F)c2)cc1C#Cc1cnc2ccnn2c1, the Activity [1] is reported as 0%.
